In this test the test system is P388 leukemia ip, CD2F1 mice, survival T/C. In words: NCI In Vivo Anticancer Drug Screen. Data for tumor model P388 Leukemia (intraperitoneal) in CD2F1 (CDF1) mice. The following applies: endpoint: median survival time, higher = longer survival. In outline: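 Mice carrying the transplanted tumor received test compound or vehicle. Survival was recorded in each group, and the value is the treated-group measurement divided by that of the vehicle-treated control group.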

Setting [1] is: dose: 25.0 mg/kg/injection, schedule: Q01DX005 (ip), vehicle: saline with Tween-80.
[2] abbreviates: dose: 50.0 mg/kg/injection, schedule: Q01DX005 (ip), vehicle: saline with Tween-80.
[3] abbreviates: dose: 100.0 mg/kg/injection, schedule: Q01DX005 (ip), vehicle: saline with Tween-80.
The mark [4] stands for this setting: dose: 50.0 mg/kg/injection, schedule: Q01DX009 (ip), vehicle: Klucel (hydroxypropylcellulose) (HPC).
The mark [5] stands for this setting: dose: 100.0 mg/kg/injection, schedule: Q01DX009 (ip), vehicle: Klucel (hydroxypropylcellulose) (HPC).
Where [6] appears, read: dose: 200.0 mg/kg/injection, schedule: Q01DX009 (ip), vehicle: Klucel (hydroxypropylcellulose) (HPC).
Where [7] appears, read: dose: 100.0 mg/kg/injection, schedule: Q04DX003 (ip), vehicle: Klucel (hydroxypropylcellulose) (HPC).
The mark [8] stands for this setting: dose: 200.0 mg/kg/injection, schedule: Q04DX003 (ip), vehicle: Klucel (hydroxypropylcellulose) (HPC).
The mark [9] stands for this setting: dose: 100.0 mg/kg/injection, schedule: Q04DX002 (ip), vehicle: saline with Tween-80.
The mark [10] stands for this setting: dose: 200.0 mg/kg/injection, schedule: Q04DX002 (ip), vehicle: saline with Tween-80.
The mark [11] stands for this setting: dose: 12.5 mg/kg/injection, schedule: Q01DX009 (ip), vehicle: saline with Tween-80.
Where [12] appears, read: dose: 25.0 mg/kg/injection, schedule: Q01DX009 (ip), vehicle: saline with Tween-80.
Setting [13] is: dose: 50.0 mg/kg/injection, schedule: Q01DX009 (ip), vehicle: saline with Tween-80.
[14] abbreviates: dose: 100.0 mg/kg/injection, schedule: Q01DX009 (ip), vehicle: saline with Tween-80.

“And” between values parts separate entries of the source, which are not always exact repeats. Identical values can stand only once. Toxic doses and inconclusive results are not listed.

In the case of `O=C(N/N=C/c1c(O)ccc2ccccc12)C(=O)N/N=C/c1c(O)ccc2ccccc12`, the T/C by setting is: (dose: 12.5 mg/kg/injection, schedule: Q01DX005 (ip), vehicle: saline with Tween-80) 97 % of control; under setting [1], 94 % of control; under setting [2], 121 % of control; under setting [3], 186 % of control.
Take `CC(=O)Nc1ccc(/C=C2\C(=O)Nc3ccccc32)cc1`: the T/C under setting [4] is 99 % of control and 91 % of control; the T/C under setting [5] is 87 % of control and 96 % of control; the T/C under setting [6] is 89 % of control and 91 % of control.
`C=CC(C(=O)O)S(=O)(=O)O` (configuration not stated): the T/C runs as follows: (dose: 20.0 mg/kg/injection, schedule: Q01DX009 (ip), vehicle: saline with Tween-80) 112 % of control; (dose: 40.0 mg/kg/injection, schedule: Q01DX009 (ip), vehicle: saline with Tween-80) 103 % of control.
For the compound `O=C([O][Hg][C](F)(F)F)C(F)(F)F`, the T/C reads like this: (dose: 1.56 mg/kg/injection, schedule: Q04DX003 (ip), vehicle: saline) 104 % of control; (dose: 3.13 mg/kg/injection, schedule: Q04DX003 (ip), vehicle: saline) 101 % of control.
Consider `CCOC(=O)C(O)(CC)CCC(C)C` (configuration not stated), for which the T/C is 100 % of control (dose: 50.0 mg/kg/injection, schedule: Q04DX003 (ip), vehicle: saline with Tween-80); 100 % of control (dose: 100.0 mg/kg/injection, schedule: Q04DX003 (ip), vehicle: saline with Tween-80); 100 % of control (dose: 200.0 mg/kg/injection, schedule: Q04DX003 (ip), vehicle: saline with Tween-80).
Turning to `CC(=O)NC1CC(=O)N(c2ccc(Cl)cc2)C1=O` (configuration not stated), the T/C by setting is: under setting [4], 96 % of control; under setting [5], 96 % of control; under setting [7], 102 % of control; under setting [8], 101 % of control.
Turning to `CN(C)C1=C(c2ccccc2)C(=O)C(c2ccccc2)=C1c1ccccc1`, the T/C was 106 % of control under setting [7]; 109 % of control under setting [8]; 109 % of control (dose: 400.0 mg/kg/injection, schedule: Q04DX003 (ip), vehicle: Klucel (hydroxypropylcellulose) (HPC)).
As to `O=C1CC(=O)N2C=CC=CC2=N1`, the T/C was 101 % of control (dose: 50.0 mg/kg/injection, schedule: Q01DX009 (ip), vehicle: saline) and 91 % of control (dose: 200.0 mg/kg/injection, schedule: Q01DX009 (ip), vehicle: saline).
As for `CN(C)c1nc(N)nc(N)n1`, the T/C was 100 % of control (dose: 6.25 mg/kg/injection, schedule: Q01DX009 (ip), vehicle: Klucel (hydroxypropylcellulose) (HPC)); 101 % of control and 115 % of control (dose: 12.5 mg/kg/injection, schedule: Q01DX009 (ip), vehicle: Klucel (hydroxypropylcellulose) (HPC)); 99 % of control and 106 % of control (dose: 25.0 mg/kg/injection, schedule: Q01DX009 (ip), vehicle: Klucel (hydroxypropylcellulose) (HPC)); 100 % of control and 107 % of control under setting [4]; 100 % of control under setting [5]; 105 % of control under setting [6].
Turning to `O=C1c2ccccc2C(=O)C1(Br)c1ccccc1`, the T/C under setting [9] was 99 % of control and the T/C under setting [10] is 101 % of control.
As to `Nc1nc(N)c2nc3c(nc2n1)CCCCCCCCCC3`, the T/C by setting is: under setting [11], 92 % of control; under setting [12], 92 % of control; under setting [13], 89 % of control; under setting [14], 90 % of control.
In the case of `Clc1ccc(N2C(c3ccccc3)=N[C@@H](N3CCOCC3)[C@@H]2N2CCOCC2)cc1`, the T/C was 100 % of control (dose: 50.0 mg/kg/injection, schedule: Q01DX005 (ip), vehicle: Klucel (hydroxypropylcellulose) (HPC)); 100 % of control (dose: 100.0 mg/kg/injection, schedule: Q01DX005 (ip), vehicle: Klucel (hydroxypropylcellulose) (HPC)); 105 % of control (dose: 200.0 mg/kg/injection, schedule: Q01DX005 (ip), vehicle: Klucel (hydroxypropylcellulose) (HPC)).
As to `N#CC(C(O)c1ccccc1)N1CCCCC1` (configuration not stated), the T/C (dose: 50.0 mg/kg/injection, schedule: Q01DX009 (ip), vehicle: suspension in saline) was 111 % of control; the T/C (dose: 100.0 mg/kg/injection, schedule: Q01DX009 (ip), vehicle: suspension in saline) was 100 % of control; the T/C (dose: 200.0 mg/kg/injection, schedule: Q01DX009 (ip), vehicle: suspension in saline) was 92 % of control.
As for `c1ccc2cc3cc(N=Nc4ccc5cc6ccccc6cc5c4)ccc3cc2c1`, the T/C is, setting by setting: under setting [9], 108 % of control; under setting [10], 104 % of control; (dose: 400.0 mg/kg/injection, schedule: Q04DX002 (ip), vehicle: saline with Tween-80) 106 % of control.
With `OCC1OC(n2nnc3cc[nH]c(=S)c32)C(O)C1O` (configuration not stated), the T/C is 106 % of control (dose: 1.56 mg/kg/injection, schedule: Q01DX009 (ip), vehicle: water); 99 % of control (dose: 3.13 mg/kg/injection, schedule: Q01DX009 (ip), vehicle: water); 98 % of control (dose: 6.25 mg/kg/injection, schedule: Q01DX009 (ip), vehicle: water); 107 % of control (dose: 12.5 mg/kg/injection, schedule: Q01DX009 (ip), vehicle: water); 97 % of control (dose: 25.0 mg/kg/injection, schedule: Q01DX009 (ip), vehicle: water).
In the case of `CCOC1=C(C)Sc2ccccc2N=C1c1ccccc1`, the T/C is, setting by setting: (dose: 100.0 mg/kg/injection, schedule: Q04DX002 (ip), vehicle: Klucel + Tween-80) 99 % of control; (dose: 200.0 mg/kg/injection, schedule: Q04DX002 (ip), vehicle: Klucel + Tween-80) 93 % of control; (dose: 400.0 mg/kg/injection, schedule: Q04DX002 (ip), vehicle: Klucel + Tween-80) 98 % of control.
For the compound `O=c1n(-c2ccccc2)c(=O)n2n1C1C=CC2C2C3OC3C21` (configuration not stated), the T/C is 100 % of control (dose: 12.5 mg/kg/injection, schedule: Q04DX003 (ip), vehicle: Klucel (hydroxypropylcellulose) (HPC)); 101 % of control (dose: 25.0 mg/kg/injection, schedule: Q04DX003 (ip), vehicle: Klucel (hydroxypropylcellulose) (HPC)); 108 % of control (dose: 50.0 mg/kg/injection, schedule: Q04DX003 (ip), vehicle: Klucel (hydroxypropylcellulose) (HPC)).
`CS(=O)(=O)OCCBr`: the T/C was 105 % of control under setting [11]; 108 % of control under setting [1]; 105 % of control under setting [12]; 110 % of control under setting [2]; 114 % of control under setting [13]; 103 % of control (dose: 100.0 mg/kg/injection, schedule: Q01DX001 (ip), vehicle: saline with Tween-80). The T/C reads like this: under setting [3], 106 % of control; under setting [14], 116 % of control.
Consider `CCCCCCC1(/C=C/c2ccc(Cl)c(Cl)c2)OCCCO1`, for which the T/C (dose: 50.0 mg/kg/injection, schedule: Q01DX009 (ip), vehicle: saline + alcohol) is 98 % of control; the T/C (dose: 100.0 mg/kg/injection, schedule: Q01DX009 (ip), vehicle: saline + alcohol) is 93 % of control; the T/C (dose: 200.0 mg/kg/injection, schedule: Q01DX009 (ip), vehicle: saline + alcohol) was 98 % of control.
Turning to `C[Si](C)(CNCCN)O[Si](C)(C)CNCCN`, the T/C runs as follows: (dose: 60.0 mg/kg/injection, schedule: Q01DX005 (ip), vehicle: saline) 99 % of control; (dose: 120.0 mg/kg/injection, schedule: Q01DX005 (ip), vehicle: saline) 90 % of control; (dose: 240.0 mg/kg/injection, schedule: Q01DX005 (ip), vehicle: saline) 101 % of control.
Turning to `COc1cc2c(cc1OC)C(CCN)=NCC2`, the T/C is 95 % of control (dose: 25.0 mg/kg/injection, schedule: Q01DX009 (ip), vehicle: saline sonified); 100 % of control (dose: 50.0 mg/kg/injection, schedule: Q01DX009 (ip), vehicle: saline sonified); 100 % of control (dose: 100.0 mg/kg/injection, schedule: Q01DX009 (ip), vehicle: saline sonified).

The values are drawn from PubChem BioAssay AID330 (DTP/NCI, 2004).
